Earlier results in patent US20230113836A1, “NEW CONJUGATES OF PEPTIDES AND POLYSACCHARIDE” (ENLITISA (SHANGHAI) PHARMACEUTICAL CO., LTD., priority 2019, published 2023).

System: Drosophila model organism
Conditions: Foureman et al., 1994

For `C(CCOCC1CO1)COCC1CO1` (stereo not shown) [BDDE, 1,4-butanediol diglycidyl ether], the Mutagenicity is listed as “mutagenic”.
